From PubChem BioAssay AID1224920 (Broad Institute, 2016)
Activity calls are given as the source filed them.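 The calls were made as follows: active = IC50 no higher than ten times the top tested dose; inconclusive = flat fit with 30 to 70% inhibition, or poor fit; inactive = IC50 above ten times the top dose.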

Assay: growth modulation of Clostridium difficile isolate – OD600, 9-point, retest, dose response (AID 1224920);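 also: plate controls were DMSO for no effect and levofloxacin control for full effect; inhibitors lower culture turbidity so OD600 falls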
Details: Clostridium difficile clinical isolate growth, OD600, 24 h

C/C=C/c1ccc(C2[C@@H]3CN(S(=O)(=O)c4ccc(F)cc4)C[C@H]2N3)cc1 (stereo partly drawn)
activity change, negative = inhibition (at 60 µM (top of the series)): 42.1% (inactive)

O=C(NC[C@H]1N[C@H](CO)[C@@H]1c1ccc(C2=CCCCC2)cc1)C1CCCC1
activity change, negative = inhibition (at 60 µM (top of the series)): 38.1% (inactive)

O=S(=O)(c1ccccc1)N1CCCCN2[C@H](CO)[C@H](c3ccc(C#Cc4ccccc4)cc3)[C@H]2C1
activity change, negative = inhibition (at 120 µM (top of the series)): 27.6% (inactive)

C[C@H]1CN([C@@H](C)CO)C(=O)c2cccc(NC(=O)Nc3ccc(C(F)(F)F)cc3)c2O[C@@H]1CN(C)C(=O)Nc1ccc(C(F)(F)F)cc1
activity change, negative = inhibition (at 135 µM (top of the series)): 33.9% (inactive)

CC(=O)N1[C@@H](CO)[C@@H](c2ccccc2)[C@@H]1CN(C)C(=O)CN1CCOCC1
activity change, negative = inhibition (at 120 µM (top of the series)): -9.07% (inactive)

N#C[C@H]1[C@@H](c2ccccc2-c2ccccc2)[C@H](CO)N1C(=O)Cc1ccccc1
activity change, negative = inhibition (at 120 µM (top of the series)): 32.6% (inactive)

COc1ccccc1-c1ccc(C2[C@@H]3CN(Cc4nccs4)C[C@H]2N3)cc1 (stereo partly drawn)
activity change, negative = inhibition (at 68 µM (top of the series)): 37.9% (inactive)

CC(=O)NC[C@@H]1[C@H](c2ccc(-c3cccc(F)c3)cc2)[C@@H](CO)N1C(C)=O
activity change, negative = inhibition (at 120 µM (top of the series)): -11.6% (inactive)

COc1cccc(-c2ccc3c(c2)[C@@H]2[C@@H](CCN2Cc2ccccc2OC)[C@@H](CO)N3)c1
activity change, negative = inhibition (at 30 µM (top of the series)): -7.43% (inactive)

CC(=O)NC[C@@H]1[C@H](c2ccc(-c3cccc(F)c3)cc2)[C@H](CO)N1C(C)=O
activity change, negative = inhibition (at 120 µM (top of the series)): -6.3% (inactive)

CN(C)C(=O)c1cccc(-c2ccc(C3[C@H]4CNC[C@@H]3N4S(=O)(=O)c3ccc(Cl)cc3)cc2)c1 (stereo partly drawn)
activity change, negative = inhibition (at 135 µM (top of the series)): 10.5% (inactive)

Cc1ccc(-c2ccc([C@@H]3[C@H]4CN(C(=O)Nc5cccc(F)c5)CCCCN4[C@H]3CO)cc2)cc1
activity change, negative = inhibition (at 120 µM (top of the series)): 6.7% (inactive)

O=C(Nc1ccccc1F)N1C[C@@H]2N[C@H](C1)C2c1ccc(-c2ccccc2)cc1 (stereo partly drawn)
activity change, negative = inhibition (at 120 µM (top of the series)): 36.7% (inactive)

Cc1cccc(-c2ccc([C@@H]3[C@@H](CO)N4CCCCN(CCC(F)(F)F)C[C@@H]34)cc2)c1
activity change, negative = inhibition (at 30 µM (top of the series)): 25% (inactive)

CC(=O)N1[C@@H](CO)[C@H](c2ccccc2)[C@@H]1CN(C)C(=O)CN1CCOCC1
activity change, negative = inhibition (at 120 µM (top of the series)): -5.04% (inactive)

CCC(=O)N1CC(=O)N2[C@H](CO)[C@@H](c3ccc(C#CC4CCCCC4)cc3)[C@@H]2C1
activity change, negative = inhibition (at 30 µM (top of the series)): -9.02% (inactive)

COc1ccc2c3c(n(C)c2c1)[C@H](CO)N(C(=O)c1cccnc1)CC31CCN(C(=O)c2cccnc2)CC1
activity change, negative = inhibition (at 120 µM (top of the series)): 0.941% (inactive)

O=C(c1ccc(F)cc1)N1CC[C@@H]2[C@H]1c1cc(C3=CCCCC3)ccc1N[C@@H]2CO
activity change, negative = inhibition (at 60 µM (top of the series)): 34.8% (inactive)

N#Cc1cccc(-c2ccc3c(c2)[C@@H]2[C@@H](CCN2Cc2ccc4c(c2)OCO4)[C@@H](CO)N3)c1
activity change, negative = inhibition (at 35 µM (top of the series)): -4.09% (inactive)

C/C=C/c1ccc([C@H]2[C@@H](CNC(C)C)N(c3nc(CC)cs3)[C@H]2CO)cc1
activity change, negative = inhibition (at 135 µM (top of the series)): 32.5% (inactive)

N#C[C@@H]1[C@@H](c2ccccc2-c2cccc(F)c2)[C@H](CO)N1C(=O)NC1CCCCC1
activity change, negative = inhibition (at 120 µM (top of the series)): 9.02% (inactive)

C[C@H](CO)N1C[C@H](C)[C@@H](CN(C)S(=O)(=O)c2ccc(Cl)cc2)Oc2c(NS(=O)(=O)c3ccccc3)cccc2C1=O
activity change, negative = inhibition (at 120 µM (top of the series)): -3.11% (inactive)

CC(=O)N(C)C[C@H]1[C@H](c2ccc(-c3ccccc3F)cc2)[C@H](CO)N1C(C)=O
activity change, negative = inhibition (at 120 µM (top of the series)): -3.85% (inactive)

N#Cc1ccc(-c2ccc(C3[C@H]4CNC[C@@H]3N4C(=O)Nc3ccc(Cl)cc3)cc2)cc1 (stereo partly drawn)
activity change, negative = inhibition (at 135 µM (top of the series)): 25.9% (inactive)

O=C(Nc1ccccc1F)N1C[C@@H]2N[C@H](C1)C2c1ccc(-c2cccc(F)c2)cc1 (stereo partly drawn)
activity change, negative = inhibition (at 60 µM (top of the series)): 33.4% (inactive)

CN1c2ccc(Br)cc2[C@@H]2[C@@H](CCN2C(=O)Nc2ccc(F)cc2)[C@H]1CO
activity change, negative = inhibition (at 120 µM (top of the series)): 127% (inactive)

N#C[C@@H]1[C@@H](c2ccccc2-c2cccc(F)c2)[C@H](CO)N1C(=O)NC1CCCC1
activity change, negative = inhibition (at 120 µM (top of the series)): 10.6% (inactive)

O=S(=O)(c1cccc(F)c1)N1CC[C@@H]2[C@@H](CO)Nc3ccc(-c4cccc(F)c4)cc3[C@@H]21
activity change, negative = inhibition (at 120 µM (top of the series)): 45.7% (inactive)

O=C(C1CCCC1)N1C[C@@H]2N[C@H](C1)C2c1ccc(-c2cccc(F)c2)cc1 (stereo partly drawn)
activity change, negative = inhibition (at 60 µM (top of the series)): 46.7% (inactive)

O=C(C1CCCCC1)N1CC(=O)N2[C@@H](CO)[C@H](c3ccc(C#CCc4ccccc4)cc3)[C@@H]2C1
activity change, negative = inhibition (at 60 µM (top of the series)): 21.9% (inactive)

CCCNC(=O)N1CC[C@H]2[C@@H]1c1cc(C#Cc3ccccc3)ccc1N(C)[C@H]2CO
activity change, negative = inhibition (at 60 µM (top of the series)): 49.3% (inactive)

O=C(Cc1ccccc1)N1CC[C@@H]2[C@H](CO)Nc3ccc(C4=CCCCC4)cc3[C@@H]21
activity change, negative = inhibition (at 68 µM (top of the series)): 29.4% (inactive)

CN1c2ccc(-c3ccc(F)cc3)cc2[C@H]2[C@H](CCN2C(=O)Nc2ccc(F)cc2)[C@H]1CO
activity change, negative = inhibition (at 120 µM (top of the series)): 43.1% (inactive)
